As a reminder, the IC50 is the concentration that gives 50% inhibition.

The structures appear in SMILES notation.

The record followed here is patent publication US10017504B2, “Piperidine isoxazole and isothiazole orexin receptor antagonists” (MERCK SHARP & DOHME CORP., priority 2014, dated 2018).

For the assay, the target named is human orexin-2 receptor (Homo sapiens (Human), UniProt O43614). Put plainly: FLIPR Ca2+ Flux Assay, orexin-2 receptor. In kind it is cell-based. The note with it: CHO cells expressing the human orexin-2 receptor; agonist 70 pM Ala-6,12 human orexin-A; read-out: hOX2 FLIPR IC50. The protocol: In a typical experiment the OX1 and OX2 receptor antagonistic activity of the compounds of the present invention was determined in accordance with the following experimental method. For intracellular calcium measurements, Chinese hamster ovary (CHO) cells expressing the rat orexin-1 receptor or the human orexin-2 receptor, are grown in Iscove's modified DMEM containing 2 mM L-glutamine, […], 1% hypoxanthine-thymidine supplement, 100 U/ml penicillin, 100 μg/ml streptomycin and 10% heat-inactivated fetal calf serum (FCS). The cells are seeded at 20,000 cells/well into Becton-Dickinson black 384-well clear bottom sterile plates coated with poly-D-lysine. All reagents are from GIBCO-Invitrogen Corp. The seeded plates are incubated overnight at 37° C. and 5% CO2. Ala-6,12 human orexin-A as the agonist is prepared as a 1 mM stock solution in 1% bovine serum albumin (BSA) and diluted in assay buffer (HBSS containing 20 mM HEPES, 0.1% BSA and 2.5 mM probenecid, pH7.4) for use in the assay at a final concentration of 70 pM. Test compounds are prepared as 10 mM stock solution in DMSO, then diluted in 384-well plates, first in DMSO, then assay buffer. On the day of the assay, cells are washed 3 times with 100 μl assay buffer and then incubated for 60 min (37° C., 5% CO2) in 60 μl assay buffer containing 1 μM Fluo-4AM ester, 0.02% pluronic acid, and 1% BSA. The dye loading solution is then aspirated and cells are washed 3 times with 100 μl assay buffer. 30 μl of that same buffer is left in each well. Within the Fluorescent Imaging Plate Reader (FLIPR, Molecular Devices), test compounds are added to the plate in a volume of 25 μl, incubated for 5 min and finally 25 μl of agonist is added. Fluorescence is measured for each well at 1 second intervals for 5 minutes and the height of each fluorescence peak is compared to the height of the fluorescence peak induced by 70 pM Ala-6,12 orexin-A with buffer in place of antagonist. […] The intrinsic orexin receptor antagonist activity of a compound which may be used in the present invention may be determined by these assays.
Sequence of human orexin-2 receptor (O43614 whole entry): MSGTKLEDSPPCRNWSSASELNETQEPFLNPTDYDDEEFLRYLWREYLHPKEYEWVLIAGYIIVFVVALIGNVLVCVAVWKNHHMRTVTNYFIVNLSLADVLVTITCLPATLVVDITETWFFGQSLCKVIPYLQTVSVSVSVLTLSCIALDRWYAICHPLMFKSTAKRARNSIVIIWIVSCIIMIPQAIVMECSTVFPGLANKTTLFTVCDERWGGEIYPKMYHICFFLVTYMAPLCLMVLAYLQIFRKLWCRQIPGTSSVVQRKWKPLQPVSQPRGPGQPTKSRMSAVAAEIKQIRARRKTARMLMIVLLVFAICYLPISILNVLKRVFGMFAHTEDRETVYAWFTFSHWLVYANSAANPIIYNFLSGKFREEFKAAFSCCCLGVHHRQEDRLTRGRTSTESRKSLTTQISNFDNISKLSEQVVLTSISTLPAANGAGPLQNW
Regarding `C[C@@H]1CC[C@@H](c2cc(C(C)(O)C3CC3)on2)CN1C(=O)c1ccccc1-n1nccn1` (single isomer, unassigned) [Example 9], the IC50 worked out at 25.8 nM.
To `C[C@@H]1CC[C@@H](c2cc(C(C)(O)C3CC3)on2)CN1C(=O)c1ccccc1-n1nccn1` (single isomer, unassigned) [Example 10] belongs 15.6 nM; to `CC(C)C(C)(O)c1cc([C@@H]2CC[C@@H](C)N(C(=O)c3ccccc3-n3nccn3)C2)no1` (single isomer, unassigned) [Example 16], 24.3 nM.
On to `CC(C)C(C)(O)c1cc([C@@H]2CC[C@@H](C)N(C(=O)c3ccccc3-n3nccn3)C2)no1` (single isomer, unassigned) [Example 17], for which the IC50 was determined as 24.5 nM.
As to `C[C@@H]1CC[C@@H](c2cc(C(C)(O)C3CC3)no2)CN1C(=O)c1ccccc1-n1nccn1` (single isomer, unassigned) [Example 52], the IC50 was 47.3 nM.
On to `C[C@@H]1CC[C@@H](c2cc(C(C)(O)C3CC3)no2)CN1C(=O)c1ccccc1-n1nccn1` (single isomer, unassigned) [Example 53], for which the IC50 was 34.3 nM.
With `C[C@@H]1CC[C@@H](c2cc(C(C)(C)O)on2)CN1C(=O)c1ccccc1-n1nccn1` [Example 1, 2-{3-[(3R,6R)-6-Methyl-1-{[2-(2H-1,2,3-triazol-2-yl)phenyl]carbonyl}piperidin-3-yl]isoxazol-5-yl}propan-2-ol], the IC50 amounted to 46.9 nM.
`C[C@@H]1CC[C@@H](c2cc(C(C)(C)O)on2)CN1C(=O)c1ccccc1C1(C#N)CC1` [Example 2, 1-(2-((2R,5R)-5-(5-(2-Hydroxypropan-2-yl)isoxazol-3-yl)-2-methylpiperidine-1-carbonyl)phenyl)cyclopropanecarbonitrile]: the IC50 stood at 104 nM.
As to `C[C@@H]1CC[C@@H](c2cc(C(C)(C)O)on2)CN1C(=O)c1cc(Cl)ccc1-n1nccn1` [Example 3, (5-Chloro-2-(2H-1,2,3-triazol-2-yl)phenyl)((2R,5R)-5-(5-(2-hydroxypropan-2-yl)isoxazol-3-yl)-2-methylpiperidin-1-yl)methanone], the IC50 stood at 1430 nM.
Regarding `C[C@@H]1CC[C@@H](c2cc(C(C)(C)O)on2)CN1C(=O)c1cc(F)ccc1-n1nccn1` [Example 4, (5-Fluoro-2-(2H-1,2,3-triazol-2-yl)phenyl)((2R,5R)-5-(5-(2-hydroxypropan-2-yl)isoxazol-3-yl)-2-methylpiperidin-1-yl)methanone], the IC50 was determined as 278 nM.
`CCOc1ccccc1C(=O)N1C[C@H](c2cc(C(C)(C)O)on2)CC[C@H]1C` [Example 5, (2-Ethoxyphenyl)((2R,5R)-5-(5-(2-hydroxypropan-2-yl)isoxazol-3-yl)-2-methylpiperidin-1-yl)methanone]: the IC50 was 1190 nM.
With `CC(C)Oc1ncccc1C(=O)N1C[C@H](c2cc(C(C)(C)O)on2)CC[C@H]1C` [Example 6, ((2R,5R)-5-(5-(2-Hydroxypropan-2-yl)isoxazol-3-yl)-2-methylpiperidin-1-yl)(2-isopropoxypyridin-3-yl)methanone], the IC50 worked out at 1840 nM.
To `C[C@@H]1CC[C@@H](c2cc(C(C)(C)O)on2)CN1C(=O)c1cccnc1OCC(F)(F)F` [Example 7, ((2R,5R)-5-(5-(2-Hydroxypropan-2-yl)isoxazol-3-yl)-2-methylpiperidin-1-yl)(2-(2,2,2-trifluoroethoxy)pyridin-3-yl)methanone] belongs 227 nM; to `CCC(O)(CC)c1cc([C@@H]2CC[C@@H](C)N(C(=O)c3ccccc3-n3nccn3)C2)no1` [Example 8, (2-(2H-1,2,3-triazol-2-yl)phenyl)((2R,5R)-5-(5-(3-hydroxypentan-3-yl)isoxazol-3-yl)-2-methylpiperidin-1-yl)methanone], 552 nM.
Consider `CC[C@@](C)(O)c1cc([C@@H]2CC[C@@H](C)N(C(=O)c3ccccc3-n3nccn3)C2)no1` [Example 11, (2-(2H-1,2,3-Triazol-2-yl)phenyl)((2R,5R)-5-(5-((R)-2-hydroxybutan-2-yl)isoxazol-3-yl)-2-methylpiperidin-1-yl)methanone], for which the IC50 stood at 41.4 nM.
Consider `CC[C@](C)(O)c1cc([C@@H]2CC[C@@H](C)N(C(=O)c3ccccc3-n3nccn3)C2)no1` [Example 12, (2-(2H-1,2,3-triazol-2-yl)phenyl)((2R,5R)-5-(5-((S)-2-hydroxybutan-2-yl)isoxazol-3-yl)-2-methylpiperidin-1-yl)methanone], for which the IC50 stood at 15 nM.
In the case of `C[C@@H]1CC[C@@H](c2cc(C3(O)CCC3)on2)CN1C(=O)c1ccccc1-n1nccn1` [Example 13, 1-{3-[(3R,6R)-6-Methyl-1-{[2-(2H-1,2,3-triazol-2-yl)phenyl]carbonyl}piperidin-3-yl]isoxazol-5-yl}cyclobutanol], the IC50 was 635 nM.
`C[C@@H]1CC[C@@H](c2cc([C@](C)(O)C(F)F)on2)CN1C(=O)c1ccccc1-n1nccn1` [Example 18, (2S)-1,1-Difluoro-2-{3-[(3R,6R)-6-methyl-1-{[2-(2H-1,2,3-triazol-2-yl)phenyl]carbonyl}piperidin-3-yl]isoxazol-5-yl}propan-2-ol]: the IC50 is 92 nM.
To `COC(C)(C)c1cc([C@@H]2CC[C@@H](C)N(C(=O)c3ccccc3-n3nccn3)C2)no1` [Example 19, (2R,5R)-5-[5-(1-methoxy-1-methylethyl)isoxazol-3-yl]-2-methyl-1-{[2-(2H-1,2,3-triazol-2-yl)phenyl]carbonyl}piperidine] belongs 27.3 nM.
To `C[C@@H]1CC[C@@H](c2cc(C(C)(C)O)no2)CN1C(=O)c1ccccc1-n1nccn1` [Example 20, 2-{5-[(3R,6R)-6-Methyl-1-{[2-(2H-1,2,3-triazol-2-yl)phenyl]carbonyl}piperidin-3-yl]isoxazol-3-yl}propan-2-ol] belongs 30.3 nM.
For `COCc1ccccc1C(=O)N1C[C@H](c2cc(C(C)(C)O)no2)CC[C@H]1C` [Example 21, 2-{5-[(3R,6R)-1-{[2-(Methoxymethyl)phenyl]carbonyl}-6-methylpiperidin-3-yl]isoxazol-3-yl}propan-2-ol], the IC50 came out at 1120 nM.
As for `C[C@@H]1CC[C@@H](c2cc(C(C)(C)O)no2)CN1C(=O)c1ccccc1-c1ncccn1` [Example 22, 2-(5-{(3R,6R)-6-Methyl-1-[(2-pyrimidin-2-ylphenyl)carbonyl]piperidin-3-yl}isoxazol-3-yl)propan-2-ol], the IC50 stood at 51.4 nM.
Consider `CCOc1ncccc1C(=O)N1C[C@H](c2cc(C(C)(C)O)no2)CC[C@H]1C` [Example 23, 2-(5-{(3R,6R)-1-[(2-Ethoxypyridin-3-yl)carbonyl]-6-methylpiperidin-3-yl}isoxazol-3-yl)propan-2-ol], for which the IC50 was found to be 268 nM.
To `C[C@@H]1CC[C@@H](c2cc(C(C)(C)O)no2)CN1C(=O)c1cc(F)ccc1-n1nccn1` [Example 24, 2-{5-[(3R,6R)-1-{[5-Fluoro-2-(2H-1,2,3-triazol-2-yl)phenyl]carbonyl}-6-methylpiperidin-3-yl]isoxazol-3-yl}propan-2-ol] belongs 215 nM; to `C[C@@H]1CC[C@@H](c2cc(C(C)(C)O)no2)CN1C(=O)c1nccnc1-n1cccn1` [Example 25, 2-{5-[(3R,6R)-6-methyl-1-{[3-(1H-pyrazol-1-yl)pyrazin-2-yl]carbonyl}piperidin-3-yl]isoxazol-3-yl}propan-2-ol], 799 nM.
